pIC50, pKd: −log10 of the molar value.
Assays:
[1] = Inhibition of bacterial Class A beta-lactamase; parameters: species or system Bacteria
[2] = Inhibition of bacterial beta lactamase class C; parameters: species or system Bacteria
Enterobacteriaceae [3] = test: Inhibition of ESBL in Enterobacteriaceae assessed as potentiation of cefepime-induced antibacterial activity by measuring cefepime MIC by broth microdilution method
[4] = Inhibition of bacterial NDM1 expressed in Escherichia coli BL21(DE3) using nitrocefin as substrate measured after 5 to 10 mins; parameters: species or system Bacteria
[5] = Inhibition of bacterial VIM2 expressed in Escherichia coli BL21(DE3) using nitrocefin as substrate measured after 5 to 10 mins; parameters: species or system Bacteria
[6] = Binding affinity to Zn2+ by isothermal calorimetric method
[7] = Inhibition of bacterial NDM1; parameters: species or system Bacteria
Klebsiella pneumoniae [8] = test: Inhibition of beta lactamase OXA in Klebsiella pneumoniae assessed as potentiation of meropenem-induced antibacterial activity by measuring fold reduction in meropenem MIC
Klebsiella pneumoniae [9] = test: Inhibition of beta lactamase KPC in Klebsiella pneumoniae assessed as potentiation of meropenem-induced antibacterial activity by measuring fold reduction in meropenem MIC
Klebsiella pneumoniae [10] = test: Inhibition of beta lactamase class C in Klebsiella pneumoniae assessed as potentiation of meropenem-induced antibacterial activity by measuring fold reduction in meropenem MIC
[11] = target: Beta-lactamase OXA-23 (Acinetobacter baumannii) (UniProt Q9L4P2); test: Inhibition of beta-lactamase OXA-23 in Acinetobacter baumannii ST2 assessed as potentiation of cefepime-induced antibacterial activity by measuring cefepime MIC at 8 ug/ml
Chain of Beta-lactamase OXA-23 (Acinetobacter baumannii) (Q9L4P2 whole entry): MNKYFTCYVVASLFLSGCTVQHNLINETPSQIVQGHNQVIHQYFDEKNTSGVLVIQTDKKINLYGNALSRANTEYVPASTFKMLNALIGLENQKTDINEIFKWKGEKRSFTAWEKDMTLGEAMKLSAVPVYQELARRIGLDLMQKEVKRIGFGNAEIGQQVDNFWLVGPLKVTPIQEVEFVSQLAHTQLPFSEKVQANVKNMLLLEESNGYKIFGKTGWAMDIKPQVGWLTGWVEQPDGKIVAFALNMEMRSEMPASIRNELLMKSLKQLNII

[12] = target: Beta-lactamase OXA-23 (Acinetobacter baumannii) (UniProt Q9L4P2); test: Inhibition of beta-lactamase OXA-23 in Acinetobacter baumannii ST2 assessed as potentiation of sulbactam-induced antibacterial activity by measuring sulbactam MIC at 8 ug/ml
Enterobacteriaceae [13] = test: Inhibition of CTX-M-15 in Enterobacteriaceae assessed as potentiation of cefepime-induced antibacterial activity by measuring cefepime MIC at 1:1 ratio of test compound to cefepime by broth microdilution method
Acinetobacter sp. = test: Inhibition of beta lactamase in Acinetobacter sp. assessed as potentiation of cefepime-induced antibacterial activity by measuring cefepime MIC at 1:1 ratio of test compound to cefepime by microarray based method
Enterobacteriaceae [14] = test: Inhibition of SHV in Enterobacteriaceae assessed as potentiation of cefepime-induced antibacterial activity by measuring cefepime MIC at 1:1 ratio of test compound to cefepime by broth microdilution method
Enterobacteriaceae [15] = test: Inhibition of plasmid-encoded Ampc in Enterobacteriaceae assessed as potentiation of cefepime-induced antibacterial activity by measuring cefepime MIC at 1:1 ratio of test compound to cefepime by broth microdilution method
Pseudomonas aeruginosa = test: Inhibition of beta lactamase in Pseudomonas aeruginosa assessed as potentiation of cefepime-induced antibacterial activity by measuring cefepime MIC at 1:1 ratio of test compound to cefepime by microarray based method
Escherichia coli = test: Inhibition of ESBL in Escherichia coli clinical isolate assessed as potentiation of cefepime-induced antibacterial activity by measuring fold reduction in cefepime MIC at 1:1 ratio of test compound to cefepime by […] method
Enterobacteriaceae [16] = test: Inhibition of carbapenemase in Enterobacteriaceae clinical isolate assessed as potentiation of cefepime-induced antibacterial activity by measuring fold reduction in cefepime MIC at 1:1 ratio of test compound to cefepime by microarray-based method
Enterobacteriaceae [17] = test: Inhibition of metallo-beta-lactamase in Enterobacteriaceae assessed as potentiation of cefepime-induced antibacterial activity by measuring cefepime MIC at 1:1 ratio of test compound to cefepime by broth microdilution method
Klebsiella sp. = test: Inhibition of ESBL in Klebsiella sp. assessed as potentiation of cefepime-induced antibacterial activity by measuring fold reduction in cefepime MIC at 1:1 ratio of test compound to cefepime by […] method
Enterobacteriaceae [18] = test: Inhibition of beta lactamase in Enterobacteriaceae clinical isolate assessed as potentiation of cefepime-induced antibacterial activity by measuring cefepime MIC at 1:1 ratio of test compound to cefepime by microarray-based method
Enterobacteriaceae [19] = test: Inhibition of ESBL in Enterobacteriaceae assessed as potentiation of cefepime-induced antibacterial activity by measuring cefepime MIC at 1:1 ratio of test compound to cefepime by broth microdilution method
Enterobacteriaceae [20] = test: Inhibition of KPC in Enterobacteriaceae assessed as potentiation of cefepime-induced antibacterial activity by measuring cefepime MIC at 1:1 ratio of test compound to cefepime by broth microdilution method
Enterobacteriaceae [21] = test: Inhibition of derepressed beta-lactamase AmpC mutant in Enterobacteriaceae assessed as potentiation of cefepime-induced antibacterial activity by measuring cefepime MIC at 1:1 ratio of test compound to cefepime by broth microdilution method

Work on `O=C(NOC1CCNC1)[C@@H]1CC2(CC2)[C@@H]2CN1C(=O)N2OS(=O)(=O)O` (some centres undefined) yielded a pIC50 [1] greater than 7.72 and a pIC50 [2] greater than 7.72.
`Cn1cc[n+](C[C@@]2(C)[C@H](C(=O)[O-])N3C(=O)C[C@H]3S2(=O)=O)n1` gave an MIC50 (Enterobacteriaceae [3]) of 0.125 µg/mL and an MIC90 (Enterobacteriaceae [3]) of 0.5 µg/mL.
Work on `N[C@@H](CN[C@@H](CN[C@@H](CC(=O)O)C(=O)O)C(=O)O)C(=O)O` yielded a pIC50 [4] of 5.40, a pIC50 [5] of 5.02 and a pKd [6] of 6.70.
`CC(C)c1cccc2c(-c3ccc(Cn4cccn4)cc3)c(C(=O)O)[nH]c12` showed a pIC50 [7] of 9.30.
With `NC[C@H]1CC([C@@H]2CC[C@@H]3CN2C(=O)N3OS(=O)(=O)O)=NO1` the fold change (FC) (Klebsiella pneumoniae [8]) was less than 1024, the fold change (FC) (Klebsiella pneumoniae [9]) was less than 1024 and the fold change (FC) (Klebsiella pneumoniae [10]) was less than 1024.
`NCCONC(=O)[C@@H]1CC2(CC2)[C@@H]2CN1C(=O)N2OS(=O)(=O)O` gave a pIC50 [1] greater than 7.72 and a pIC50 [2] greater than 7.72.
Molecule `CC(C)c1cccc2c(-c3ccc(S(=O)(=O)N(C)C)cc3)c(C(=O)O)[nH]c12` has a pIC50 [7] of 9.46.
`O=C(NNC(=O)[C@@H]1CC[C@@H]2CN1C(=O)N2OS(=O)(=O)O)[C@@H]1CCCNC1` showed a fold change (FC) [11] of 4, a fold change (FC) [12] of 8 and an MIC90 (Enterobacteriaceae [13]) of 1 µg/mL. It also gave an MIC90 (Acinetobacter sp.) of 32 µg/mL, an MIC90 (Enterobacteriaceae [14]) of 0.25 µg/mL and an MIC90 (Enterobacteriaceae [15]) of less than 0.06 µg/mL. The MIC90 (Pseudomonas aeruginosa) was 4 µg/mL, the fold change (FC) (Escherichia coli) was 16 and the fold change (FC) (Enterobacteriaceae [16]) was 16. For the same molecule, the MIC90 (Enterobacteriaceae [17]) was 8 µg/mL, the fold change (FC) (Klebsiella sp.) was 16 and the MIC90 (Enterobacteriaceae [18]) was 0.12 µg/mL. The MIC90 (Enterobacteriaceae [19]) was 1 µg/mL, the MIC90 (Enterobacteriaceae [20]) was 1 µg/mL and the MIC90 (Enterobacteriaceae [21]) was 0.5 µg/mL.
